Measurements reported in patent publication US20250154201A1, “PEPTIDE BINDING TO MESOTHELIN, AND USE THEREOF” (KYUNGPOOK NATIONAL UNIVERSITY INDUSTRY-ACADEMIC COOPERATION …, priority 2022, published 2025).

Experiments:
[1] = system: pancreatic cancer cell lines PANC-1 and AsPC-1; assay: internalization of FITC-labeled peptides (confocal microscopy); assay type: cell-based, human; settings: 25 μM and 50 μM MSLN-pep, 50 uM NSSSVDK; 1 and 2 hours
Protocol: To observe the intracellular distribution of the internalized FITC-labeled peptide MSLN-pep, pancreatic cancer cell lines AsPC-1 and PANC-1 cells (2.5×10^5 cell counts) were dispensed on a 4-well chamber slide. After complete adhesion, the cell culture medium was replaced with a fresh medium containing FITC-labeled peptides (25 μM, 50 μM), […], and the cells were washed with PBS 3 times for 3˜5 minutes, followed by fixation (4% paraformaldehyde; PFA) for 5 minutes. Thereafter, washing with PBS was performed. After staining the nucleus with DAPI and mounting on a glass slide with a fading reagent, internalization of FITC-labeled MSLN-pep was observed under confocal microscopy.

[2] = system: AsPC-1 tumor; assay: tumor homing of peptides in mice; assay type: in vivo, nude mice; settings: TAMRA-labeled, intravenous, 6 hours circulation
Protocol: Pancreatic cancer cell line AsPC-1 cells (1×10^7 cells) were implanted under the skin of nude mice, left until the tumor size reaches about 100 mm^3, and then intravenously injected with 100 μl of 1 mM peptides labeled with a TAMRA fluorescence reagent, followed by circulation for 6 hours. Tumors and organs (liver, lung, and kidney) were separated and treated with paraformaldehyde for fixation and preparation of cryosections. The prepared cryosections were observed under a fluorescence microscope.
Pancreatic cancer cell line AsPC-1 cells (1×10^7 cells) were implanted under
the skin of nude mice, left until the tumor size reached about 100 mm^3, and then intravenously injected with MSLN-pep labeled with the TAMRA fluorescence reagent and control peptide (Ctrl-pep), followed by circulation for 6 hours. The tumor and control organs were separated, and cryosections were prepared, followed by observation under a fluorescence microscope.

[3] = system: PANC-1 and AsPC-1 cell lines; assay: analysis of migration (24-transwell); assay type: cell-based, human; settings: 24 hours
Protocol: PANC-1 and AsPC-1 cell lines were cultured using DMEM and RPMI-1640 media with 10% FBS added respectively in the upper chamber of 24-transwell at a concentration of 2×10^4 cells per well. After 24 hours, all the media in the upper chamber of 24-transwells were removed and replaced with DMEM and RPMI-1640 media without addition of 10% FBS to inhibit migratability of cell lines, so as to be in a starvation state. After 24 hours, the experimental group was added with 10% FBS in the lower chamber, and the control was added with 0% FBS in the lower chamber to observe migratability. 3% ACN, 200 μM control peptide (Ctrl-pep), MSLN-pep 25. For 50, 100, and 200 μM groups, the media in the upper chamber of 24-Transwell were removed, each drug was treated by concentration, and 10% FBS was treated in the lower chamber. Each group was cultured at 37° C. for 24 hours, and then the cells were photographed (original magnification, ×100) by concentration of each peptide. Cells were stained with crystal violet (0.1%), and the ImageJ, a computer program, was used for quantitative evaluation.
After pancreatic cancer cell lines PANC-1 and AsPC-1 were cultured in 24-transwells, all cells were starved for 24 hours to inhibit cell growth, and then treatment was performed in divided groups of 10% FBS, 0% FBS, 3% ACN+10% FBS, 200 μM NSSSVDK+10% FBS, 25 μM MSLN-pep+10% FBS, 50 μM MSLN-pep+10% FBS, 100 μM MSLN-pep+10% FBS, and 200 μM MSLN-pep+10% FBS.

[4] = target: mesothelin (Homo sapiens, UniProt Q13421); assay: immunofluorescence binding to HEK-293T cells transiently transfected with mesothelin-GFP plasmid; assay type: cell-based; design: GFP; host or cells: HEK293T; settings: 10 μM and 25 μM MSLN-pep, 25 μM Ctrl-pep; transfected and untransfected HEK-293T
Chain of mesothelin (Q13421 with tags, fused parts or gaps): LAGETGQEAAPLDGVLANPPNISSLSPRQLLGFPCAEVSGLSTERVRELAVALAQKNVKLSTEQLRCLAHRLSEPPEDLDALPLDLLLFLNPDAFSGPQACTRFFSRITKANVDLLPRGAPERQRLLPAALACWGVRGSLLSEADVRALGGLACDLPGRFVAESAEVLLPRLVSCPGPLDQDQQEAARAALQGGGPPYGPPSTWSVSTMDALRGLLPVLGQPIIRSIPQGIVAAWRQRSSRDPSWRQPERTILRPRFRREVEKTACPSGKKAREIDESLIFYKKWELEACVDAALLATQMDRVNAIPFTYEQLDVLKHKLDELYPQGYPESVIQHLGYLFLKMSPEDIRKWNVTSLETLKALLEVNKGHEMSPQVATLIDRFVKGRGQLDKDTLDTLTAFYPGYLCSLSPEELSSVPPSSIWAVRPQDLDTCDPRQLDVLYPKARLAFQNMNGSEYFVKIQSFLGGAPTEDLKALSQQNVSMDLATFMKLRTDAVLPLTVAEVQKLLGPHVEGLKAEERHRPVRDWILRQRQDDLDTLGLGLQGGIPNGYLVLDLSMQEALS
Protocol: HEK293T cells were transiently transfected using Lipofectamine 3000 (Invitrogen) in 6-well plates according to the manufacturer's protocol. Prior to transfection, 2×10^5 cells were cultured in 6-well plates for 24 hours. To transfect one well, 7.5 μl of Lipofectamine 3000 reagent was diluted in 250 μl of Opti-MEM (Invitrogen) reagent, followed by a reaction at room temperature for 5 minutes. 5 μg of mesothelin-expressing plasmid pCMV6-AC-GFP vector DNA was diluted in 250 μl of Opti-MEM (Invitrogen) reagent, followed by a reaction at room temperature for 5 minutes. The mixture of two solutions were then mixed and reacted at room temperature for 10 minutes (a total of 500 μl per well). The old medium of the cells was immediately removed, and a 500 μl of DNA-transfection reagent-mixture was added to the cells before transfer to the incubator. After 24 hours of culture, the medium was again replaced with a pre-warmed growth medium containing serum. Culture was performed for 48 hours, and the newly inserted protein was expressed in the cells.
(§1) Taken together, it was found via immunofluorescence analysis that MSLN-pep specifically binds to mesothelin.

[5] = system: mesothelin-expressing pancreatic cancer cell lines AsPC-1, PANC-1, BxPC-3, and MiaPaCa-2; assay: immunofluorescence binding of MSLN-pep to pancreatic cancer cell lines; assay type: cell-based, human; settings: 10 μM and 25 μM MSLN-pep
Text: as §1

CC[C@H](C)[C@@H]1NC(=O)[C@H]([C@@H](C)O)NC(=O)[C@@H](N)CSSC[C@@H](C(=O)O)NC(=O)[C@H]([C@@H](C)O)NC(=O)[C@H](CC(C)C)NC(=O)[C@H](CO)NC(=O)[C@H](Cc2c[nH]c3ccccc23)NC(=O)[C@H](CC(C)C)NC1=O [MSLN-pep]
binding and internalization into cells [1]: internalization into cells occurs in proportion to the increase in the concentration
targeting to control organs (fluorescence microscopy of cryosections) ([2]; liver, lungs, kidneys): barely observed
targeting to tumor tissue (fluorescence microscopy of cryosections) ([2]; tumor tissue): observed at a higher level compared to the control
migratability compared to treatment of 10% FBS ([3]; 25 μM + 10% FBS): no difference in the migratability and invasiveness
migratability ([3]; 50, 100 and 200 μM + 10% FBS): suppressed with increasing concentrations of MSLN-pep
specific binding (immunofluorescence) [4]: bound only to the mesothelin-expressing portion
specific binding (immunofluorescence) [5]: specific binding of MSLN-pep even at 10 μM with the further increase at 25 μM
